Assay results reported in US11753410B2, “Hormone receptor modulators for treating metabolic mutagenic and fibrotic conditions and disorders” (priority 2017, dated 2023).

Target: T1, ligand binding domain of human FXR (Homo sapiens, UniProt Q96RI1)
T1 construct: purchased Thermofisher (LanthaScreen) PV4833
T1 sequence (Q96RI1 262-486 limits assumed): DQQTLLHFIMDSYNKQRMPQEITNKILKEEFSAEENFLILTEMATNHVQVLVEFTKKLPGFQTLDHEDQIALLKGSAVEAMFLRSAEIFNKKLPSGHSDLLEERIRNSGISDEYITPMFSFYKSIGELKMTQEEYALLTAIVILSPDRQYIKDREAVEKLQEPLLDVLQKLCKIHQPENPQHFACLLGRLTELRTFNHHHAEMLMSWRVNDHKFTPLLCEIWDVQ
Assay: biochemical
Conditions: for Emax: extent of activation relative to GW4064, read-out: Ligand Binding % Efficacy; for EC50: −log EC50, concentration required to produce 50% activation, FRET 520 nm/495 nm, 1 hour at room temperature, read-out: Ligand Binding pEC50 (converted)
Experimental: The affinity of FXR ligands for the ligand binding domain of FXR was determined using a commercially available human FXR ligand binding assay (LanthaScreen, Thermofisher Cat #PV4833). […] Binding of FXR ligands to the FXR ligand binding domain promotes binding of the fluorescein-labelled SRC2-2 peptide. This causes a FRET signal between the terbium-labelled anti-GST antibody and the fluorescein-labelled SRC peptide which are both bound to the FXR ligand binding domain.
Test compounds are dissolved in DMSO and a 3-fold serial dilution series is generated, then further diluted into assay buffer. The compounds are mixed with 5 nM GST-tagged FXR ligand binding domain, 5 nM Tb-labelled anti-GST antibody and 500 nM fluorescein-labelled SRC2-2 peptide in a pH7.4 buffer. The reaction is incubated at room temperature for 1 hour, then the FRET signal is measured as the ratio of the 520 nm/495 nm emission following excitation at 340 nm. The change in FRET signal is plotted against the test article concentration and fit to a 3-parameter logistical equation.

| Structure (SMILES) | Emax [%] | EC50 [nM] |
| --- | --- | --- |
| C[C@@H]1[C@@H]2C[C@@H](C[C@H]2OCc2c(C3CC3)cnn2-c2c(Cl)cccc2Cl)N1c1ccc(C(=O)NS(=O)(=O)C2CC2)c(F)c1 [Compound I-29, N-(cyclopropanesulfonyl)-4-[(1S,3R,4S,5R)-5-{[4-cyclopropyl-1-(2,6-dichlorophenyl)-1H-pyrazol-5-yl]methoxy}-3-methyl-2-azabicyclo[2.2.1]heptan-2-yl]-2-fluorobenzamide] | 59 | 200 |
| O=C(O)CCc1ccc(N2C[C@@H]3C[C@H]2C[C@H]3OCc2c(C3CC3)cnn2-c2c(F)cccc2F)c(F)c1 [Compound I-35, 3-{4-[(1S,4S,5R)-5-{[4-cyclopropyl-1-(2,6-difluorophenyl)-1H-pyrazol-5-yl]methoxy}-2-azabicyclo[2.2.1]heptan-2-yl]-3-fluorophenyl}propanoic acid] | 152 | 631 |
| Cc1cccc(C)c1-n1ncc(C2CC2)c1CO[C@@H]1C[C@@H]2C[C@H]1CN2c1ccc(CCC(=O)O)cc1F [Compound I-36, 3-{4-[(1S,4S,5R)-5-{[4-cyclopropyl-1-(2,6-dimethylphenyl)-1H-pyrazol-5-yl]methoxy}-2-azabicyclo[2.2.1]heptan-2-yl]-3-fluorophenyl}propanoic acid] | 134 | 158 |
| Cc1cccc(Cl)c1-n1ncc(C2CC2)c1CO[C@@H]1C[C@@H]2C[C@H]1CN2c1ccc(CCC(=O)O)cc1F [Compound I-37, 3-{4-[(1S,4S,5R)-5-{[1-(2-chloro-6-methylphenyl)-4-cyclopropyl-1H-pyrazol-5-yl]methoxy}-2-azabicyclo[2.2.1]heptan-2-yl]-3-fluorophenyl}propanoic acid] | 176 | 39.8 |
| O=C(O)CCc1ccc(N2C[C@@H]3C[C@H]2C[C@H]3OCc2c(C3CC3)cnn2-c2c(F)cccc2Cl)c(F)c1 [Compound I-38, 3-{4-[(1S,4S,5R)-5-{[1-(2-chloro-6-fluorophenyl)-4-cyclopropyl-1H-pyrazol-5-yl]methoxy}-2-azabicyclo[2.2.1]heptan-2-yl]-3-fluorophenyl}propanoic acid] | 185 | 158 |
| O=C(O)CCc1ccc(N2C(=O)[C@@H]3C[C@H]2C[C@H]3OCc2c(C3CC3)cnn2-c2c(Cl)cccc2Cl)c(F)c1 [Compound I-39, 3-{4-[(1S,4R,5R)-5-{[4-cyclopropyl-1-(2,6-dichlorophenyl)-1H-pyrazol-5-yl]methoxy}-3-oxo-2-azabicyclo[2.2.1]heptan-2-yl]-3-fluorophenyl}propanoic acid] | 136 |  |
| O=C(O)C1CC(c2ccc(N3C[C@@H]4C[C@H]3C[C@H]4OCc3c(C4CC4)cnn3-c3c(Cl)cccc3Cl)c(F)c2)C1 (stereo partly drawn) [Compound I-40, 3-{4-[(1S,4S,5R)-5-{[4-cyclopropyl-1-(2,6-dichlorophenyl)-1H-pyrazol-5-yl]methoxy}-2-azabicyclo[2.2.1]heptan-2-yl]-3-fluorophenyl}cyclobutane-1-carboxylic acid] | 156 | 31.6 |
